Experimental data taken from patent US6660501B2, “Production of proteins by cell culture” (Lonza Group, AG, priority 1986, dated 2003).

Tested on: NT1/19 cells
Assay: Effect of varying alkanoates on antibody production from hybridoma cells
Type: cell-based
Conditions: for AVERAGE DATA FROM EXP. #1 & #2: average of relative productivity, control 100.00; for PRODUCTIVITY EXP. #1: control 3.30; for PRODUCTIVITY EXP #2: control 2.39
Method: The IgM secreting mouse hybridoma cell line NB1/19 was grown in suspension culture in Dulbeccos Modified Eagles Minimum (DMEM) serum-free medium containing albumin, insulin, transferrin, gentamycin and other additives as required to cultivate cells in suspension culture. The NB1/19 cell line produces a mouse monoclonal antibody having specificity for an antigenic determinant of human B-type blood cells. The preparation of this call line is described in detail in the specification of British Patent GB 2097425B. It will be appreciated, however, that other hybridoma cell lines may be used in place of this particular cell line as appropriate in this and other examples.
The cells were grown to a viable cell density of 1.0-1.5×10^6 cells/ml. Viable cell density was determined by counting the number of cells which exclude trypan blue, a staining agent. A sample of the suspension culture was diluted in a serum-free medium to a density of about 1.3×10^5 cells/ml. Aliquots of 50 ml in volume were dispensed into shake flasks and sodium butyrate added at concentrations of 0.1 mM, 0.3 mM, 0.5 mM and 1.0 mM.
The shake flasks were gassed with 5% CO2-95% air, and sealed and incubated with shaking at 37° C. for up to 207 hours. (Table 1). Samples ([…]) were removed from the culture by pipette. 100 μl was used to determine viable cell count and the reminder centrifuged at 300×g for five minutes. Supernatants were stored at −20° C. prior to antibody determination by enzyme linked immunosorbent assay (ELISA).
NT1/19 cells were cultured as in Example 1. Varying straight chain sodium alkanoate salts (propionate, butyrate, bentanoate or hexanoate) were added to the inoculum at the concentrations indicated in Table 5.

Row | SMILES | RELATIVE PRODUCTIVITY EXP. #1 (0.50 mM alkanoate) | AVERAGE DATA FROM EXP. #1 & #2 (0.50 mM alkanoate) | PRODUCTIVITY EXP. #1 (0.50 mM alkanoate) | RELATIVE PRODUCTIVITY EXP. #1 (1.00 mM alkanoate) | RELATIVE PRODUCTIVITY EXP. #2 (1.00 mM alkanoate) | AVERAGE DATA FROM EXP. #1 & #2 (1.00 mM alkanoate) | PRODUCTIVITY EXP #2 (1.00 mM alkanoate) | PRODUCTIVITY EXP. #1 (1.00 mM alkanoate)
1 | CCCCC(=O)[O-].[Na+] [PENANOATE, bentanoate] | 163.6 % of control | 163.64 | 5.40 ug antibody per 10^5 cells | 206.1 % of control | 230.1 % of control | 218.09 | 5.50 ug antibody per 10^5 cells | 6.80 ug antibody per 10^5 cells
2 | CCC(=O)O [PROPIONATE, propionate] | – | 172.73 | 5.70 ug antibody per 10^5 cells | – | – | 210.07 | 4.95 ug antibody per 10^5 cells | 7.03 ug antibody per 10^5 cells
